Where a name gives a salt, the structure may show the parent alone.
Experiments:
Format in all cases: physicochemical
[1] = Thermal stability in a solid state, acceleration test at 60° C. (HPLC content)
Description: High Performance Liquid Chromatography (HPLC) analysis was conducted under the following conditions:
Detector: UV absorption (237 nm)
Column: Octadesyl silica gel C18 (4.6 mm×150 mm, 5 μm)
Mobile phase: Potassium dihydrogen phosphate monobasic (0.03 M): Methanol=4:6 (by volume)

[2] = Evaluation of photostability (exposed to sunlight at 25° C. for 4 weeks, HPLC content); conditions: for Colour of the surface after exposure to light: white at initial stage, exposed to sunlight at 25° C., 4 weeks; for Content (HPLC): stored at 25° C. for 4 weeks with light exposure
Description: To evaluate photostability, a change in the content (%, HPLC) of each sample was observed under the same HPLC analysis conditions as in the evaluation of thermal stability. Photostability is quite an important factor in therapeutic agents for treating hypertension because they are administered to patients over a prolonged period of dosage.

[3] = Stability in a liquid state (distilled water, 25° C., 4 weeks, protected from light); conditions: dissolved in distilled water, 4 weeks at 25° C.
From the text: The observation was made under the same conditions as in the HPLC analysis for evaluating the thermal stability of samples in a solid state.

[4] = Evaluation of hygroscopicity: water content by Karl Fisher method under various humidity conditions; conditions: 25° C.

CCOC(=O)C1=C(COCCN)NC(C)=C(C(=O)OC)C1c1ccccc1Cl (stereo not drawn) [Adipic acid salt, crystalline adipic acid salt of amlodipine]
Content (HPLC) ([1]; 60° C., 1 week): 99.8%
Content (HPLC) ([1]; 60° C., 2 weeks): 99.7%
Content (HPLC) ([1]; 60° C., 4 weeks): 99.7%
Content (HPLC) ([1]; initial stage): 99.8%
Colour of the surface after exposure to light [2]: remained white
Change in the content (HPLC) [3]: no significant changes in the content
Decomposed products [3]: no decomposed products
Water content (Karl Fisher method) ([4]; initial stage): 0.10%
Water content (Karl Fisher method) ([4]; relative humidity 25%, 1 week): 0.10%
Water content (Karl Fisher method) ([4]; relative humidity 60%, 1 week): 0.10%
Water content (Karl Fisher method) ([4]; relative humidity 75%, 1 week): 0.14%
Water content (Karl Fisher method) ([4]; relative humidity 95%, 1 week): 0.16%

CCOC(=O)C1=C(COCCN)NC(C)=C(C(=O)OC)C1c1ccccc1Cl (stereo not drawn) [Besylate salt, Amlodipine Besylate, reference compound]
Content (HPLC) ([1]; 60° C., 1 week): 99.6%
Content (HPLC) ([1]; initial stage): 99.6%
Content (HPLC) [2]: 82.5%
Colour of the surface after exposure to light [2]: turned yellow
Change in the content (HPLC) [3]: no significant changes in the content
Decomposed products [3]: no decomposed products
Water content (Karl Fisher method) ([4]; initial stage): 0.14%
Water content (Karl Fisher method) ([4]; relative humidity 25%, 1 week): 0.10%
Water content (Karl Fisher method) ([4]; relative humidity 60%, 1 week): 0.09%
Water content (Karl Fisher method) ([4]; relative humidity 75%, 1 week): 0.15%
Water content (Karl Fisher method) ([4]; relative humidity 95%, 1 week): 0.17%

CCOC(=O)C1=C(COCCN)NC(C)=C(C(=O)OC)C1c1ccccc1Cl (stereo not drawn) [Tosylate salt, Amlodipine p-Toluene Sulfonate]
Content (HPLC) [2]: 72.0%
